{
  "source": "paper PMC9146377",
  "about": "“Design and Synthesis of Novel Bis-Imidazolyl Phenyl Butadiyne Derivatives as HCV NS5A Inhibitors” (Pharmaceuticals, 2022)",
  "key": {"[1]": {"system": "subgenomic replicon of HCV GT 2a (strain JFH1)", "test": "Anti-HCV luciferase assay, genotype 2a replicon in Huh7-JFH1 cells", "type": "cell-based, Hepatitis C virus", "details": "for EC50: Huh7-JFH1 cells", "experimental": "(§1) Specifically, we determined the activity of 10a against viral replication by measuring luciferase activity in Huh7-JFH1, Huh7.5-3a, and Huh7.5-4a stable cell lines containing subgenomic replicons of HCV GT 2a (strain JFH1), GT 3a (strain S52) and GT 4a (strain ED43), respectively. In addition, the activity of 10a was determined in Huh7-Lunet cells electroporated with the in vitro transcribed full-length reporter viral RNA of HCV genotype 1a (strain H77S.3).\nHuh5-2 [65] and Huh7-JFH1 [66] stable cell lines harbor the subgenomic HCV reporter replicon I389luc-ubi-neo/NS3-3′/Con1/5.1 (genotype 1b; strain Con1) and I389luc-ubi-neo/NS3-3′_dg_JFH1 (genotype 2a, JFH1 strain), respectively (kindly provided by R. Bartenschlager, Heidelberg University, Heidelberg, Germany). Huh7.5-3a and Huh7.5-4a stable cell lines harbor the subgenomic HCV reporter replicon S52-SG (Feo) (AII) (genotype 3a; S52 strain) and ED43-SG (Feo) (VYG) (genotype 4a; ED43 strain), respectively (viral constructs kindly provided by C.M. Rice, Rockefeller University, New York, NY, USA). […]\n(§2) The anti-HCV assay in replicon cells was performed by seeding 1 × 10^4 cells per well in a 96-well plate. […] Cells were lysed after 72 h, and F-Luc activity was measured. […] At 72 h post-treatment, cell supernatants were collected, and G-Luc activity was measured. In addition, the cells were lysed for total protein quantification.\n(§3) Relative luminescence units (RLU) were expressed as a percentage of the respective units derived from DMSO-treated cells (control). […]\n(§4) The F-Luc activity was measured using the Luciferase Assay System (Promega, Madison, WI, USA), as recommended by the manufacturer. The G-Luc activity was measured using 12 μM coelenterazine (Promega) in assay buffer (50 mM potassium phosphate, pH 7.4, 500 mM NaCl, 1 mM EDTA). […] The F-Luc activity was normalized to the total protein amount determined using the Bradford assay reagent (Pierce, Waltham, MA, USA)."}, "[2]": {"test": "Phase I and phase II metabolic stability in human liver S9 fractions", "type": "in vitro ADME", "details": "LC-MS/MS, read-out: half-life time (t½)", "experimental": "This was done using human liver S9 fractions, following the previously reported protocol. A number of samples were taken at defined time points, and using LC-MS/MS, the remaining percentage of the parent compound was determined."}, "[3]": {"system": "subgenomic replicon of HCV GT 4a (strain ED43)", "test": "Anti-HCV luciferase assay, genotype 4a replicon in Huh7.5-4a cells", "type": "cell-based, Hepatitis C virus", "experimental": "as §1, with “H77S.3). […]” for “H77S.3).”\nas §2, §3, §4"}, "[4]": {"system": "NS5A protein expression, HCV Con1 (GT 1b)", "test": "Indirect immunofluorescence for NS5A in Huh5-2 replicon cells", "type": "cell-based, Hepatitis C virus", "details": "10-fold serial dilutions, confocal microscopy", "experimental": "The potency of compound 10a measured by the luciferase assay in HCV GT 1b was confirmed at the level of viral RNA and NS5A protein expression. Huh5-2 replicon cells were treated with 10a in serial dilutions, or its solvent DMSO (control), and viral RNA was quantified by reverse transcription-quantitative polymerase chain reaction (RT-qPCR). NS5A protein levels were evaluated by indirect immunofluorescence combined with confocal microscopy analysis. […] Nuclei were stained with propidium iodide (PI) as a cell viability control.\nAn indirect immunofluorescence analysis of Con1 NS5A was performed as described previously. Propidium iodide (Sigma-Aldrich, St. Louis, MO, USA) was used to stain the DNA. Images were obtained with a Leica TCS-SP8 Confocal Microscope (Wetzlar, Germany).\nFigure 6 Inhibition of HCV RNA and protein expression levels exerted by compound 10a in HCV Con1 (GT 1b) subgenomic replicon cell line. (A) RT-qPCR analysis of (+) strand HCV RNA levels in Huh5-2 replicon cells treated with 10-fold serial dilutions of compound 10a or the solvent DMSO. Values are expressed as a percentage of those obtained from cells treated with the solvent (control). The housekeeping gene YWHAZ (tyrosine 3-monooxygenase/tryptophan 5-monooxygenase activation protein zeta) was used as a normalization control. […]"}, "[5]": {"test": "Cytotoxicity assay (intracellular ATP levels), Table 4 Gt1a", "type": "cell-based", "details": "human, Huh7-Lunet cells, HCV 1a (H77) full length", "experimental": "Intracellular ATP levels were measured to determine the cytotoxicity of the compounds in the treated cells. In 96-well plates, 10^4 cells per well were seeded, incubated with serial dilutions of the compounds or DMSO as a control for 72 h at 37 °C (5% CO2) and lysed for ATP measurement. ATP levels were measured using the ViaLight HS BioAssay kit (Lonza, Basel, Switzerland) in a GloMax 20/20 single-tube luminometer (Promega) for 1 s, according to the manufacturer’s protocol. Values were normalized to total protein amounts and used to determine the compound concentration causing 50% cell death (CC50). Nonlinear regression analysis was performed using Prism 5.0 software (GraphPad Software Inc., San Diego, CA, USA)."}, "[6]": {"system": "subgenomic replicon of HCV GT 3a (strain S52)", "test": "Anti-HCV luciferase assay, genotype 3a replicon in Huh7.5-3a cells", "type": "cell-based", "details": "Hepatitis C virus, GT3A, read-out: Gt3a EC50", "experimental": "as §1, with “H77S.3). […]” for “H77S.3).”\nas §2, §3, §4"}, "[7]": {"system": "HCV genotype 1a (strain H77S.3) full-length reporter viral RNA", "test": "microbe, parasite or virus in culture", "type": "cell-based, Hepatitis C virus"}},
  "note": "Read-outs that look alike come from different tables or passages of the source.",
  "data": [
    {"smiles": "COC(=O)N[C@@H](C(=O)N1CCC[C@H]1c1ncc(-c2cccc(C#CC#Cc3cccc(-c4cnc([C@@H]5CCCN5C(=O)[C@H](NC(=O)OC)c5ccccc5)[nH]4)c3)c2)[nH]1)c1ccccc1", "note": "[Compound 10a, Dimethyl ((1R,1′R)-((2S,2′S)-((buta-1,3-diyne-1,4-diylbis(3,1-phenylene))bis(1H-imidazole-5,2-diyl))bis(pyrrolidine-2,1-diyl))bis(2-oxo-1-phenylethane-2,1-diyl))dicarbamate]", "values": [
      {"measurement": "Gt2a SI", "setting": "[1]", "result": ">3567.61"},
      {"measurement": "EC50", "setting": "[1]; Hepatitis C virus, GT2A", "result": 28, "unit": "nM"},
      {"measurement": "EC50", "setting": "[1]; listed as Comp. 10a, read-out: Gt2a EC50", "result": 28, "unit": "nM"},
      {"measurement": "half-life", "setting": "[2]", "result": "> 2", "unit": "h"},
      {"measurement": "Gt4a SI", "setting": "[3]; ED43 replicon", "result": ">1537.52"},
      {"measurement": "EC50", "setting": "[3]; Hepatitis C virus, GT4A, read-out: Gt4a EC50", "result": 65, "unit": "nM"},
      {"measurement": "NS5A protein expression", "setting": "[4]", "result": "reduction of NS5A expression"},
      {"measurement": "CC50 at 72 h", "setting": "[5]", "result": "> 100000", "unit": "nM"},
      {"measurement": "EC50", "setting": "[6]", "result": 128, "unit": "nM"},
      {"measurement": "melting point", "result": "126 to 128", "unit": "°C"},
      {"measurement": "Gt1a SI", "setting": "[7]; HCV 1a (H77) full length", "result": ">2792.52"},
      {"measurement": "EC50", "setting": "[7]; Hepatitis C virus, Huh-7, 72 h, read-out: Gt1a EC50", "result": 35.8, "unit": "nM"}
    ]}
  ]
}
